Test results published in article PMC10425802 (Genes & Diseases, 2023).

What was measured:
Experiment in all cases: mobility shift kinase assay
Type in all cases: biochemical
FGFR3 = FGFR3 (Homo sapiens, UniProt P22607)
FGFR2 = FGFR2 (Homo sapiens, UniProt P21802)
FGFR1 = FGFR1 (Homo sapiens, UniProt P11362)
Chain of FGFR1 (P11362 22-822): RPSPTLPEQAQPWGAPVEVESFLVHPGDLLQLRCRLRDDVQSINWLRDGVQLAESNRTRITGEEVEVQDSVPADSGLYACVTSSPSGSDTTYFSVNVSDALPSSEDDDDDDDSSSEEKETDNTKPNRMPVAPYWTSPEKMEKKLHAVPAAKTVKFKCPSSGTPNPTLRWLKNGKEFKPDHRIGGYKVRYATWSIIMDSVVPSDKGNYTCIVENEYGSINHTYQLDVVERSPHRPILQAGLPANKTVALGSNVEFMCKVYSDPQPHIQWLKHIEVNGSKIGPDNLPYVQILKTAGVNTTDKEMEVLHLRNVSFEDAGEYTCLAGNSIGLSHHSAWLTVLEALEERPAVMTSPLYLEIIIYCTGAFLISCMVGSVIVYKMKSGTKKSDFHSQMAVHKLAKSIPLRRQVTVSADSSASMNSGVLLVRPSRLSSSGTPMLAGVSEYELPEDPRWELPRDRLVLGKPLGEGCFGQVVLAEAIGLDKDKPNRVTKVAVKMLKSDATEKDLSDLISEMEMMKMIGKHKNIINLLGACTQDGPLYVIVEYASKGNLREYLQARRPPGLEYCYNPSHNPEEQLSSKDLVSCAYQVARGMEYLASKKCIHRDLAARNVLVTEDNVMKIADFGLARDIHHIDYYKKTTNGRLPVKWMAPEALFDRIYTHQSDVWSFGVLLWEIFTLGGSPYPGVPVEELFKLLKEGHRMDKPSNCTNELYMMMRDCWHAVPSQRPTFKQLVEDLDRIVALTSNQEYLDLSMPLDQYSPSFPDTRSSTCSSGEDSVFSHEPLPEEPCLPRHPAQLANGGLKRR

Chain of FGFR2 (P21802 22-821): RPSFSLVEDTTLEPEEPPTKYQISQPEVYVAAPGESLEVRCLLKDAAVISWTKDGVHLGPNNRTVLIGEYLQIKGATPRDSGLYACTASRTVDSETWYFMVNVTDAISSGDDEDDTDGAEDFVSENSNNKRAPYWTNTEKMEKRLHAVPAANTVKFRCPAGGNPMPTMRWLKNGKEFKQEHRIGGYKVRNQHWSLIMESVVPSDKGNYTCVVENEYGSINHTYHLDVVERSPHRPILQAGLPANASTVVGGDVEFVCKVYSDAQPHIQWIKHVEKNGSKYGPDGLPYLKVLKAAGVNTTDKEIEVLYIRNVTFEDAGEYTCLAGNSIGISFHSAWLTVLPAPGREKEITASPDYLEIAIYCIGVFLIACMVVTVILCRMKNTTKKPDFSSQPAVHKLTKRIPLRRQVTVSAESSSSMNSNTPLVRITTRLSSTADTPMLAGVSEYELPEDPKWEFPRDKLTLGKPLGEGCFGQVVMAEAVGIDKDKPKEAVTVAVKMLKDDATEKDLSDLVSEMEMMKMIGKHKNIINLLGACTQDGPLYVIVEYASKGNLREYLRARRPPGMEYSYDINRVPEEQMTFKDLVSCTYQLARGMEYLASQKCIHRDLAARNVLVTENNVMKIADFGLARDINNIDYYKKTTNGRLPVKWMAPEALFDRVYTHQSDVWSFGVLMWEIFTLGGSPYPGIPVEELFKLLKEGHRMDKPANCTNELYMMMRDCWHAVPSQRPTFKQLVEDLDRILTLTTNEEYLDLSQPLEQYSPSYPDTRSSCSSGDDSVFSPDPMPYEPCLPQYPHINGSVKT
Chain of FGFR3 (P22607 23-806): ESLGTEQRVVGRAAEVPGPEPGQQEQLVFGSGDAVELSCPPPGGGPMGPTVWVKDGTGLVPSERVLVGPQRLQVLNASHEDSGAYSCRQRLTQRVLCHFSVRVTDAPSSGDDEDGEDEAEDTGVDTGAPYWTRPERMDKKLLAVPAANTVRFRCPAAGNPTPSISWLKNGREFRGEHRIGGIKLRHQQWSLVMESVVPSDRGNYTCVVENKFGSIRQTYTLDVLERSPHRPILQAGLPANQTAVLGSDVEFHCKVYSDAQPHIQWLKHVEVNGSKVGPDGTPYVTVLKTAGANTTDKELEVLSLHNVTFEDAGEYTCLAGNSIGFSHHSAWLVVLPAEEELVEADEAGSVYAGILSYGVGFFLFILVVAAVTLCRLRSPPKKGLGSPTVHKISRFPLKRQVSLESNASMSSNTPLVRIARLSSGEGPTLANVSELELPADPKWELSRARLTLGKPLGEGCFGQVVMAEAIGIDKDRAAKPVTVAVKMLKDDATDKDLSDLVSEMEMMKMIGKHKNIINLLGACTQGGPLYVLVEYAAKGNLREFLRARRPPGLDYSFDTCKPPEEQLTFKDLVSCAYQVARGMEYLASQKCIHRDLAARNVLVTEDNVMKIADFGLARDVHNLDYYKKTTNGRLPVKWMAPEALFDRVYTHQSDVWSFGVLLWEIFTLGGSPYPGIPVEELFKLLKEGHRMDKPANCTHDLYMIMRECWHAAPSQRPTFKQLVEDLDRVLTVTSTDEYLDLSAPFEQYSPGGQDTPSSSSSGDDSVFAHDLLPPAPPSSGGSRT

IC50 (FGFR3): 78 nM
IC50 (FGFR2): 28 nM
IC50 (FGFR1): 28 nM
Substance: CYY292
